Test results: the supplement of paper PMC5908809

What was measured:
[1] = tested on: KAI3 (IL-2 2.5 ng/mL); assay: drug sensitivity score (DSS) (DSS units); higher = more sensitive; extreme values may be limits of the assay; conditions: 72 h
[2] = tested on: normal primary NK cells, pool 1 (3 donors), resting (IL-2 0 ng/mL); assay: as above; conditions: 72 h
[3] = tested on: KHYG-1 (IL-2 2.5 ng/mL); assay: as above; conditions: 72 h
[4] = tested on: YT (IL-2 2.5 ng/mL); assay: as above; conditions: 72 h
[5] = tested on: DERL-7 (IL-2 2.5 ng/mL); assay: as above; conditions: 72 h
[6] = tested on: NK-92 (IL-2 2.5 ng/mL); assay: as above; conditions: 72 h
[7] = tested on: normal primary NK cells, pool 3 (3 donors) (IL-2 2.5 ng/mL); assay: as above; conditions: 72 h
[8] = tested on: normal primary NK cells, pool 2 (3 donors) (IL-2 2.5 ng/mL); assay: as above; conditions: 72 h
[9] = tested on: normal primary NK cells, pool 1 (3 donors) (IL-2 2.5 ng/mL); assay: as above; conditions: 72 h
[10] = tested on: NK-YS (IL-2 2.5 ng/mL); assay: as above; conditions: 72 h
[11] = tested on: NKL (IL-2 2.5 ng/mL); assay: as above; conditions: 72 h
[12] = tested on: SNK-6 (IL-2 2.5 ng/mL); assay: as above; conditions: 72 h
[13] = tested on: IMC-1 (IL-2 20 ng/mL); assay: as above; conditions: 72 h
[14] = tested on: KAI3 (IL-2 2.5 ng/mL); assay: percent inhibition of viability; higher = more inhibition; conditions: 72 h
[15] = tested on: normal primary NK cells, pool 1 (3 donors), resting (IL-2 0 ng/mL); assay: as above; conditions: 72 h
[16] = tested on: KHYG-1 (IL-2 2.5 ng/mL); assay: as above; conditions: 72 h
[17] = tested on: YT (IL-2 2.5 ng/mL); assay: as above; conditions: 72 h
[18] = tested on: DERL-7 (IL-2 2.5 ng/mL); assay: as above; conditions: 72 h
[19] = tested on: NK-92 (IL-2 2.5 ng/mL); assay: as above; conditions: 72 h
[20] = tested on: normal primary NK cells, pool 3 (3 donors) (IL-2 2.5 ng/mL); assay: as above; conditions: 72 h
[21] = tested on: normal primary NK cells, pool 2 (3 donors) (IL-2 2.5 ng/mL); assay: as above; conditions: 72 h
[22] = tested on: normal primary NK cells, pool 1 (3 donors) (IL-2 2.5 ng/mL); assay: as above; conditions: 72 h
[23] = tested on: NK-YS (IL-2 2.5 ng/mL); assay: as above; conditions: 72 h
[24] = tested on: NKL (IL-2 2.5 ng/mL); assay: as above; conditions: 72 h
[25] = tested on: SNK-6 (IL-2 2.5 ng/mL); assay: as above; conditions: 72 h
[26] = tested on: IMC-1 (IL-2 20 ng/mL); assay: as above; conditions: 72 h
[27] = tested on: normal NK cells expanded with K562-aAPC; assay: as above; conditions: 72 h, IL-2 2.5 ng/mL
Procedure: (§1)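 Drug sensitivity and resistance testing on K562-aAPC-expanded normal NK cells: 5 concentrations (10-fold steps over a 10,000-fold range), 72 h at 37 °C, viability by CellTiter-Glo normalised to DMSO and benzethonium chloride controls; DSS from the fitted curve.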

[28] = tested on: normal NK cells expanded with K562-aAPC; assay: drug sensitivity score (DSS) (DSS units); higher = more sensitive; extreme values may be limits of the assay; conditions: 72 h; IL-2 2.5 ng/mL
Procedure: as §1

CC(C)(C#N)c1cc(Cn2cncn2)cc(C(C)(C)C#N)c1 [Anastrozole] (max concentration tested 10000 nM)
Conditions | drug sensitivity score
[1] | 0
[2] | 0
[3] | 0
[4] | 0
[5] | 0
[6] | 0
[7] | 0
[8] | 0
[9] | 0
[10] | 0
[11] | 0
[12] | 0
[13] | 0
[28] | 0

percent inhibition of viability [%]
Conditions | 1 nM | 10 nM | 100 nM | 1000 nM | 10000 nM
[14] | 4.34 | -3.23 | 4.57 | -3.97 | 4.8
[15] | 0.43 | -12.5 | -9.34 | -4.56 | 1.51
[16] | -3.64 | -8.98 | -2.57 | -9.89 | -0.45
[17] | 6.09 | -6.8 | 6.6 | -5.12 | 8.27
[18] | 1.86 | 1.72 | 1.5 | 4.62 | 1.85
[19] | 2.62 | -14.9 | -4.14 | -11.2 | 0.08
[20] | -11.2 | -0.62 | -6.71 | -6.71 | -5.25
[21] | -14.1 | -1.97 | -6.31 | -1.14 | -6.99
[22] | -5.66 | -8.98 | -13.5 | 1.93 | -12.4
[23] | -0.21 | -1.51 | -0.63 | -2.69 | -1.18
[24] | -3.4 | -8.92 | 1.02 | -7.99 | 1.34
[25] | -1.06 | 23.5 | 22.5 | -18.6 | 2.15
[26] | -2.19 | -4.02 | -0.27 | -6.87 | -2.18
[27] | -3.07 | -7.42 | -9.56 | -10 | -14.1

C/C(=C\c1csc(C)n1)[C@@H]1C[C@@H]2O[C@]2(C)CCC[C@H](C)[C@H](O)[C@@H](C)C(=O)C(C)(C)[C@@H](O)CC(=O)N1 [Ixabepilone] (max concentration tested 1000 nM)
Conditions | drug sensitivity score
[1] | 2.26
[2] | 0
[3] | 5.84
[4] | 5.3
[5] | 5.27
[6] | 4.08
[7] | 0
[8] | 0
[9] | 0
[10] | 3.45
[11] | 4.34
[12] | 3.82
[13] | 4.92
[28] | 2.77

percent inhibition of viability [%]
Conditions | 0.1 nM | 1 nM | 10 nM | 100 nM | 1000 nM
[14] | -14.5 | -15 | -11.8 | -8.42 | 52.3
[15] | -34.8 | -25.5 | -23.3 | -10.4 | -12
[16] | -4.44 | -6.03 | -7.83 | 2.2 | 99.9
[17] | -0.47 | -4.36 | -8.15 | 1.21 | 92.3
[18] | -1.92 | -1.52 | 3.37 | -3.24 | 99.5
[19] | -7.7 | -17.5 | -9.17 | -20.4 | 92
[20] | -11.4 | -5.18 | -5.26 | -11.3 | 0.09
[21] | -8.83 | -5.74 | -1.71 | -8.89 | 4.45
[22] | -13 | -15.1 | -13.4 | -8.88 | -3.61
[23] | -10.3 | -9.56 | -5.83 | -4.02 | 68.7
[24] | 1.14 | -23.1 | -11 | -7.09 | 87.4
[25] | 6.18 | 12.8 | -13.9 | -4.41 | 75.4
[26] | -7.65 | -4.14 | -5.18 | -8.88 | 99.5
[27] | -1.18 | -8.46 | -3.17 | -2.89 | 56.2
